From ChEMBL document CHEMBL3885861, “Open TG-GATES”

Species on record: Rattus norvegicus
Assay: Open TG-GATES - Regimen: Single
Type: toxicity, organism-based, Sprague-Dawley
Parameters: regimen Single, gender Male, age 6 weeks
Conditions: in vivo, po, 30 mg/kg, route gavage, dose level High; for APTT / Bas / Eos / Fbg / Hb / Ht / Lym / MCH / MCHC / MCV / Mono / Neu / PT / Plat / RBC / Ret / WBC: tissue Blood; for KIDNEY_L / KIDNEY_R / KIDNEY_TOTAL: tissue Kidney; for LIVER: tissue Liver; for A/G / ALP / ALT / AST / BUN / CRE / Ca / Cl / DBIL / GLC / IP / K / LDH / Na / PL / RALB / TBIL / TC / TG / TP / gamma-GTP: tissue Plasma

C=CCO [ALLYL ALCOHOL]
TERMINAL_BW (3 h): 222.7 g | APTT (3 h): 19.6 s | Bas (3 h): 0% | Eos (3 h): 1% | Fbg (3 h): 211.6 mg/dL | Hb (3 h): 13.4 g/dL | Ht (3 h): 38.7% | Lym (3 h): 75% | MCH (3 h): 21.7 pg | MCHC (3 h): 34.8% | MCV (3 h): 62.3 fL | Mono (3 h): 3% | Neu (3 h): 20.4% | PT (3 h): 12.4 s | Plat (3 h): 134.6 x10_4/uL | RBC (3 h): 622.4 x10_4/ul | Ret (3 h): 7.4% | WBC (3 h): 88.9 x10_2/uL | KIDNEY_L (3 h): 1 g | KIDNEY_R (3 h): 1 g | KIDNEY_TOTAL (3 h): 1.9 g | LIVER (3 h): 10.3 g | A/G (3 h): 1.5 | ALP (3 h): 976.6 IU/L | ALT (3 h): 42.8 IU/L | AST (3 h): 77.2 IU/L | BUN (3 h): 12 mg/dL | CRE (3 h): 0.3 mg/dL | Ca (3 h): 11 mg/dL | Cl (3 h): 101.6 meq/L | DBIL (3 h): 0.5 mg/dL | GLC (3 h): 202.2 mg/dL | IP (3 h): 8.9 mg/dL | K (3 h): 3.7 meq/L | LDH (3 h): 233.4 IU/L | Na (3 h): 140.8 meq/L | PL (3 h): 177 mg/dL | RALB (3 h): 3.4 g/dL | TBIL (3 h): 0.6 mg/dL | TC (3 h): 80 mg/dL | TG (3 h): 255 mg/dL | TP (3 h): 5.6 g/dL | gamma-GTP (3 h): 1.2 IU/L | TERMINAL_BW (6 h): 220.4 g | APTT (6 h): 19.3 s | Bas (6 h): 0% | Eos (6 h): 1% | Fbg (6 h): 217 mg/dL | Hb (6 h): 13.5 g/dL | Ht (6 h): 39.5% | Lym (6 h): 67% | MCH (6 h): 20.5 pg | MCHC (6 h): 34% | MCV (6 h): 60.2 fL | Mono (6 h): 5.2% | Neu (6 h): 25.8% | PT (6 h): 12.4 s | Plat (6 h): 129.3 x10_4/uL | RBC (6 h): 658 x10_4/ul | Ret (6 h): 7.1% | WBC (6 h): 127.5 x10_2/uL | KIDNEY_L (6 h): 0.9 g | KIDNEY_R (6 h): 0.9 g | KIDNEY_TOTAL (6 h): 1.9 g | LIVER (6 h): 9.4 g | A/G (6 h): 1.4 | ALP (6 h): 1023.4 IU/L | ALT (6 h): 101.2 IU/L | AST (6 h): 168.4 IU/L | BUN (6 h): 10.2 mg/dL | CRE (6 h): 0.4 mg/dL | Ca (6 h): 10.5 mg/dL | Cl (6 h): 102.4 meq/L | DBIL (6 h): 0.1 mg/dL | GLC (6 h): 198.4 mg/dL | IP (6 h): 9.2 mg/dL | K (6 h): 3.8 meq/L | LDH (6 h): 564.8 IU/L | Na (6 h): 140.6 meq/L | PL (6 h): 168 mg/dL | RALB (6 h): 3.1 g/dL | TBIL (6 h): 0.2 mg/dL | TC (6 h): 85.4 mg/dL | TG (6 h): 97.6 mg/dL | TP (6 h): 5.3 g/dL | gamma-GTP (6 h): 2 IU/L | TERMINAL_BW (9 h): 216.4 g | APTT (9 h): 18.7 s | Bas (9 h): 0% | Eos (9 h): 1% | Fbg (9 h): 222.2 mg/dL | Hb (9 h): 13.2 g/dL | Ht (9 h): 38.8% | Lym (9 h): 66.8% | MCH (9 h): 21.3 pg | MCHC (9 h): 34.1% | MCV (9 h): 62.5 fL | Mono (9 h): 3.2% | Neu (9 h): 28.6% | PT (9 h): 12.4 s | Plat (9 h): 129.2 x10_4/uL | RBC (9 h): 620.6 x10_4/ul | Ret (9 h): 7.4% | WBC (9 h): 104.8 x10_2/uL | KIDNEY_L (9 h): 1 g | KIDNEY_R (9 h): 1 g | KIDNEY_TOTAL (9 h): 2 g | LIVER (9 h): 9.3 g | A/G (9 h): 1.5 | ALP (9 h): 1007 IU/L | ALT (9 h): 30.6 IU/L | AST (9 h): 64.2 IU/L | BUN (9 h): 11.4 mg/dL | CRE (9 h): 0.4 mg/dL | Ca (9 h): 10.3 mg/dL | Cl (9 h): 101.4 meq/L | DBIL (9 h): 0.086 mg/dL | GLC (9 h): 206.8 mg/dL | IP (9 h): 10.5 mg/dL | K (9 h): 4.2 meq/L | LDH (9 h): 200 IU/L | Na (9 h): 139 meq/L | PL (9 h): 141.2 mg/dL | RALB (9 h): 3.1 g/dL | TBIL (9 h): 0.1 mg/dL | TC (9 h): 73 mg/dL | TG (9 h): 63.8 mg/dL | TP (9 h): 5.2 g/dL | gamma-GTP (9 h): 0.8 IU/L | TERMINAL_BW (24 h): 231.4 g | APTT (24 h): 18.2 s | Bas (24 h): 0% | Eos (24 h): 1% | Fbg (24 h): 257.2 mg/dL | Hb (24 h): 13 g/dL | Ht (24 h): 38.3% | Lym (24 h): 67.4% | MCH (24 h): 20.9 pg | MCHC (24 h): 34.1% | MCV (24 h): 61.4 fL | Mono (24 h): 4.4% | Neu (24 h): 26.8% | PT (24 h): 11.9 s | Plat (24 h): 138.1 x10_4/uL | RBC (24 h): 625 x10_4/ul | Ret (24 h): 6.1% | WBC (24 h): 103.6 x10_2/uL | KIDNEY_L (24 h): 1 g | KIDNEY_R (24 h): 1 g | KIDNEY_TOTAL (24 h): 2 g | LIVER (24 h): 11.5 g | A/G (24 h): 1.4 | ALP (24 h): 963.8 IU/L | ALT (24 h): 33.6 IU/L | AST (24 h): 64 IU/L | BUN (24 h): 12.6 mg/dL | CRE (24 h): 0.4 mg/dL | Ca (24 h): 10.4 mg/dL | Cl (24 h): 102.4 meq/L | DBIL (24 h): 0.052 mg/dL | GLC (24 h): 203.8 mg/dL | IP (24 h): 7.6 mg/dL | K (24 h): 3.6 meq/L | LDH (24 h): 209.8 IU/L | Na (24 h): 141 meq/L | PL (24 h): 148 mg/dL | RALB (24 h): 3 g/dL | TBIL (24 h): 0.1 mg/dL | TC (24 h): 81.6 mg/dL | TG (24 h): 83 mg/dL | TP (24 h): 5.1 g/dL | gamma-GTP (24 h): 0.8 IU/L
